≈ marks a conversion by molar mass, not a printed value. Like-named read-outs stand apart in the source and are kept apart here.
Experiments:
Type in all cases: cell-based
[1] = tested on: penicillin-sensitive Streptococcus pneumoniae (PSSP); assay: In vitro antibacterial activity, agar dilution method, PSSP; conditions: clinically isolated strains
Source text: (§1) Bacterial strains for test: All the bacterial strains are clinically isolated strains obtained from public sources. (1) Gram-positive bacteria: methicillin-sensitive Staphylococcus aureus (MSSA), methicillin-resistant Staphylococcus aureus (MRSA), methicillin-resistant Staphylococcus epidermidis (MRSE), methicillin-sensitive Staphylococcus epidermidis (MSSE), penicillin-sensitive Streptococcus pneumoniae (PSSP), and penicillin-resistant Streptococcus pneumoniae (PRSP); (2) Gram-negative bacteria: Escherichia coli (products from ESBLs), Klebsiella pneumonia, and Pseudomonas aeruginosa.
(§2) Drugs to be tested: Compounds 1 to 5, prepared as described above; Control drugs:
(§3) Meropenem (Meropenem for injection), Imipenem (Imipenem for injection), commercially available.
(§4) Experimental Method: the agar dilution method, by reference to Methodology of Pharmacological Experiment (X U Shuyun et al, published by the Peoples Medical Publishing House, 1st Edition, August, 1982; 3rd Edition, 5th printing, January 2002, p 1659-1660).

[2] = tested on: methicillin-sensitive Staphylococcus epidermidis (MSSE); assay: In vitro antibacterial activity, agar dilution method, MSSE
Source text: as §1, §2, §3, §4

[3] = tested on: Pseudomonas aeruginosa; assay: In vitro antibacterial activity, agar dilution method, pseudomonas aeruginosa; conditions: clinically isolated strains
Source text: as §1, §2, §3, §4

[4] = tested on: methicillin-sensitive Staphylococcus aureus (MSSA); assay: In vitro antibacterial activity, agar dilution method, MSSA; conditions: clinically isolated strains
Source text: as §1, §2, §3, §4

[5] = tested on: methicillin-resistant Staphylococcus epidermidis (MRSE); assay: In vitro antibacterial activity, agar dilution method, MRSE; conditions: clinically isolated strains
Source text: as §1, §2, §3, §4

[6] = tested on: methicillin-resistant Staphylococcus aureus (MRSA); assay: In vitro antibacterial activity, agar dilution method, MRSA; conditions: clinically isolated strains
Source text: as §1, §2, §3, §4

[7] = tested on: proteus mirabilis; assay: In vitro antibacterial activity, agar dilution method, proteus mirabilis; conditions: clinically isolated strains
[8] = tested on: Klebsiella pneumonia; assay: In vitro antibacterial activity, agar dilution method, klebsiella pneumonia; conditions: Klebsiella pneumoniae, clinically isolated strains
Source text: as §1, §2, §3, §4

[9] = tested on: Escherichia coli (products from ESBLs); assay: In vitro antibacterial activity, agar dilution method, ESBLs; conditions: clinically isolated strains
Source text: as §1, §2, §3, §4

[10] = tested on: penicillin-resistant Streptococcus pneumoniae (PRSP); assay: In vitro antibacterial activity, agar dilution method, PRSP; conditions: clinically isolated strains
Source text: as §1, §2, §3, §4

[11] = MSSE, clinically isolated strains, agar dilution, read-out: MIC90

Compound | MIC90 [1] [mg/L] | MIC90 [2, 11] [mg/L] | MIC90 [3] [mg/L] | MIC90 [4] [mg/L] | MIC90 [5] [mg/L] | MIC90 [6] [mg/L] | MIC90 [7] [mg/L] | MIC90 [8] [mg/L] | MIC90 [9] [mg/L] | MIC90 [10] [mg/L] | MIC90 [2] [mg/L]
COc1ccc(CNC(=O)[C@@H]2C[C@H](SC3=C(C(=O)O)N4C(=O)[C@H]([C@@H](C)O)[C@H]4[C@H]3C)CN2)cc1 [Compound 1, (4R,5S,6S)-6-((R)-1-hydroxyethyl)-3-((3S,5S)-5-(4-methoxybenzylcarbamoyl)pyrrolidin-3-ylthio)-4-methyl-7-oxo-1-azabicyclo[3.2.0]hept-2-ene-2-carboxylic acid] | 0.016 (≈ 0.0336 µM) | 0.031 (≈ 0.0652 µM) | 4 (≈ 8.41 µM) | 0.063 (≈ 0.132 µM) | 32 (≈ 67.3 µM) | 16 (≈ 33.6 µM) | 0.125 (≈ 0.263 µM) | 0.031 (≈ 0.0652 µM) | 0.031 (≈ 0.0652 µM) | 0.25 (≈ 0.526 µM) | 
C[C@@H](O)[C@H]1C(=O)N2C(C(=O)O)=C(S[C@@H]3CN[C@H](C(=O)NCc4ccc(S(N)(=O)=O)cc4)C3)[C@H](C)[C@H]12 [Compound 2] | 0.016 (≈ 0.0305 µM) | 0.063 (≈ 0.12 µM) | 4 (≈ 7.62 µM) |  | 32 (≈ 61 µM) | 16 (≈ 30.5 µM) | 0.125 (≈ 0.238 µM) | 0.063 (≈ 0.12 µM) | 0.063 (≈ 0.12 µM) | 0.125 (≈ 0.238 µM) | 
C[C@@H](O)[C@H]1C(=O)N2C(C(=O)O)=C(S[C@@H]3CN[C@H](C(=O)NCc4cccc(CCC(=O)O)c4)C3)[C@H](C)[C@H]12 [Compound 3] | 0.031 (≈ 0.0599 µM) | 0.031 (≈ 0.0599 µM) | 2 (≈ 3.86 µM) | 0.063 (≈ 0.122 µM) | 32 (≈ 61.8 µM) | 32 (≈ 61.8 µM) | 0.25 (≈ 0.483 µM) | 0.031 (≈ 0.0599 µM) | 0.031 (≈ 0.0599 µM) | 0.25 (≈ 0.483 µM) | 
C[C@@H](O)[C@H]1C(=O)N2C(C(=O)O)=C(S[C@@H]3CN[C@H](C(=O)NCc4ccc(OC(F)(F)F)cc4)C3)[C@H](C)[C@H]12 [Compound 4, (4R,5S,6S)-6-((R)-1-hydroxyethyl)-4-methyl-7-oxo-3-((3S,5S)-5-(4-(trifluoromethoxy)benzylcarbamoyl)pyrrolidin-3-ylthio)-1-azabicyclo[3.2.0]hept-2-ene-2-carboxylic acid] | 0.016 (≈ 0.0302 µM) | 0.031 (≈ 0.0585 µM) | 4 (≈ 7.55 µM) | 0.031 (≈ 0.0585 µM) | 16 (≈ 30.2 µM) | 16 (≈ 30.2 µM) | 0.125 (≈ 0.236 µM) | 0.031 (≈ 0.0585 µM) | 0.016 (≈ 0.0302 µM) | 0.125 (≈ 0.236 µM) | 
C[C@@H](O)[C@H]1C(=O)N2C(C(=O)O)=C(S[C@@H]3CN[C@H](C(=O)NCc4ccc(OC(F)F)cc4)C3)[C@H](C)[C@H]12 [Compound 5] | 0.016 (≈ 0.0313 µM) | 0.063 (≈ 0.123 µM) | 2 (≈ 3.91 µM) | 0.063 (≈ 0.123 µM) | 16 (≈ 31.3 µM) | 16 (≈ 31.3 µM) | 0.125 (≈ 0.244 µM) | 0.063 (≈ 0.123 µM) | 0.016 (≈ 0.0313 µM) | 0.25 (≈ 0.489 µM) | 
C[C@@H](O)[C@H]1C(=O)N2C(C(=O)O)=C(SCCN=CN)C[C@H]12 [Imipenem, reference compound] | 0.016 (≈ 0.0534 µM) | 0.031 (≈ 0.104 µM) | 8 (≈ 26.7 µM) | 0.063 (≈ 0.21 µM) | 64 (≈ 214 µM) | 32 (≈ 107 µM) | 8 (≈ 26.7 µM) | 0.5 (≈ 1.67 µM) | 0.25 (≈ 0.835 µM) | 0.5 (≈ 1.67 µM) | 
C[C@@H](O)[C@H]1C(=O)N2C(C(=O)O)=C(S[C@@H]3CN[C@H](C(=O)N(C)C)C3)[C@H](C)[C@H]12 [Meropenem, reference compound] | 0.031 (≈ 0.0808 µM) |  | 4 (≈ 10.4 µM) | 0.25 (≈ 0.652 µM) | 64 (≈ 167 µM) | 64 (≈ 167 µM) | 0.25 (≈ 0.652 µM) | 0.063 (≈ 0.164 µM) | 0.031 (≈ 0.0808 µM) | 1 (≈ 2.61 µM) | 0.125 (≈ 0.326 µM)

Reference: patent US8318716B2, “Carbapenem derivatives” (KBP Biosciences Co., Ltd., priority 2009, dated 2012)
